Source: PubChem BioAssay (NCI)
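Exposure lasted 48 hours, with cells grown in 96-well plates and compounds tested at five concentrations. The concentration for 50% growth inhibition is given as GI50. The concentration for full growth arrest is given as TGI.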

Legend:
Experiment in all cases: NCI-60 cell line screen, 48 h
786-0 renal = test system: 786-0 renal
A498 renal = test system: A498 renal
A549 NSCLC = test system: A549 NSCLC
ACHN renal = test system: ACHN renal
BT-549 breast = test system: BT-549 breast
CAKI-1 renal = test system: CAKI-1 renal
CCRF-CEM leukemia = test system: CCRF-CEM leukemia
COLO 205 colon = test system: COLO 205 colon
DU-145 prostate = test system: DU-145 prostate
EKVX NSCLC = test system: EKVX NSCLC
HCC-2998 colon = test system: HCC-2998 colon
HCT-116 colon = test system: HCT-116 colon
HCT-15 colon = test system: HCT-15 colon
HL-60(TB) leukemia = test system: HL-60(TB) leukemia
HOP-62 NSCLC = test system: HOP-62 NSCLC
HOP-92 NSCLC = test system: HOP-92 NSCLC
HS 578T breast = test system: HS 578T breast
HT29 colon = test system: HT29 colon
IGROV1 ovarian = test system: IGROV1 ovarian
K-562 leukemia = test system: K-562 leukemia
KM12 colon = test system: KM12 colon
LOX IMVI melanoma = test system: LOX IMVI melanoma
M14 melanoma = test system: M14 melanoma
MALME-3M melanoma = test system: MALME-3M melanoma
MCF7 breast = test system: MCF7 breast
MDA-MB-231 breast = test system: MDA-MB-231 breast
MDA-MB-435 = test system: MDA-MB-435
MOLT-4 leukemia = test system: MOLT-4 leukemia
NCI-H226 lung = test system: NCI-H226 lung
NCI-H23 lung = test system: NCI-H23 lung
NCI-H460 lung = test system: NCI-H460 lung
NCI-H522 lung = test system: NCI-H522 lung
NCI/ADR-RES ovarian = test system: NCI/ADR-RES ovarian
OVCAR-3 ovarian = test system: OVCAR-3 ovarian
OVCAR-4 ovarian = test system: OVCAR-4 ovarian
OVCAR-5 ovarian = test system: OVCAR-5 ovarian
OVCAR-8 ovarian = test system: OVCAR-8 ovarian
PC-3 prostate = test system: PC-3 prostate
RPMI-8226 leukemia = test system: RPMI-8226 leukemia
RXF 393 renal = test system: RXF 393 renal
SF-268 CNS = test system: SF-268 CNS
SF-295 CNS = test system: SF-295 CNS
SF-539 CNS = test system: SF-539 CNS
SK-MEL-2 melanoma = test system: SK-MEL-2 melanoma
SK-MEL-28 melanoma = test system: SK-MEL-28 melanoma
SK-MEL-5 melanoma = test system: SK-MEL-5 melanoma
SK-OV-3 ovarian = test system: SK-OV-3 ovarian
SN12C renal = test system: SN12C renal
SNB-19 CNS = test system: SNB-19 CNS
SNB-75 CNS = test system: SNB-75 CNS
SW-620 colon = test system: SW-620 colon
T-47D breast = test system: T-47D breast
TK-10 renal = test system: TK-10 renal
U251 CNS = test system: U251 CNS
UACC-257 melanoma = test system: UACC-257 melanoma
UACC-62 melanoma = test system: UACC-62 melanoma
UO-31 renal = test system: UO-31 renal

N#Cc1c(-c2ccccc2)cc(-c2ccc(Nc3nc(Nc4ccc(Cl)cc4)nc(Nc4ccc(Cl)cc4)n3)cc2)nc1N
GI50 (786-0 renal): 1.91 µM | TGI (786-0 renal): 3.46 µM | GI50 (A498 renal): 1.28 µM | TGI (A498 renal): 8.72 µM | GI50 (A549 NSCLC): 11 µM | TGI (A549 NSCLC): > 100 µM | GI50 (ACHN renal): 1.64 µM | TGI (ACHN renal): 3.26 µM | GI50 (BT-549 breast): 5.2 µM | TGI (BT-549 breast): 24.2 µM | GI50 (CAKI-1 renal): 11.8 µM | TGI (CAKI-1 renal): 30.4 µM | GI50 (CCRF-CEM leukemia): 3.1 µM | TGI (CCRF-CEM leukemia): 9.4 µM | GI50 (COLO 205 colon): 1.78 µM | TGI (COLO 205 colon): 3.96 µM | GI50 (DU-145 prostate): 4.67 µM | TGI (DU-145 prostate): 20.4 µM | GI50 (EKVX NSCLC): 16.6 µM | TGI (EKVX NSCLC): 48.8 µM | GI50 (HCC-2998 colon): 7 µM | TGI (HCC-2998 colon): 35.5 µM | GI50 (HCT-116 colon): 1.48 µM | TGI (HCT-116 colon): 3 µM | GI50 (HCT-15 colon): 1.56 µM | TGI (HCT-15 colon): 5.1 µM | GI50 (HL-60(TB) leukemia): 1.71 µM | TGI (HL-60(TB) leukemia): 5.35 µM | GI50 (HOP-62 NSCLC): 19.1 µM | TGI (HOP-62 NSCLC): 35 µM | GI50 (HOP-92 NSCLC): 1.06 µM | TGI (HOP-92 NSCLC): 3.86 µM | GI50 (HS 578T breast): 1.2 µM | TGI (HS 578T breast): 6.02 µM | GI50 (HT29 colon): 3.8 µM | TGI (HT29 colon): 16.5 µM | GI50 (IGROV1 ovarian): 1.34 µM | TGI (IGROV1 ovarian): 2.67 µM | GI50 (K-562 leukemia): 2.15 µM | TGI (K-562 leukemia): 7.59 µM | GI50 (KM12 colon): 2.91 µM | TGI (KM12 colon): 11.4 µM | GI50 (LOX IMVI melanoma): 1.85 µM | TGI (LOX IMVI melanoma): 4.33 µM | GI50 (M14 melanoma): 1.79 µM | TGI (M14 melanoma): 3.67 µM | GI50 (MALME-3M melanoma): 1.69 µM | TGI (MALME-3M melanoma): 3.62 µM | GI50 (MCF7 breast): 1.56 µM | TGI (MCF7 breast): 4.16 µM | GI50 (MDA-MB-231 breast): 1.76 µM | TGI (MDA-MB-231 breast): 4.89 µM | GI50 (MDA-MB-435): 2.8 µM | TGI (MDA-MB-435): 14.1 µM | GI50 (MOLT-4 leukemia): 1.62 µM | TGI (MOLT-4 leukemia): 4.53 µM | GI50 (NCI-H226 lung): 1.73 µM | TGI (NCI-H226 lung): 3.75 µM | GI50 (NCI-H23 lung): 6.14 µM | TGI (NCI-H23 lung): 61.4 µM | GI50 (NCI-H460 lung): 3.47 µM | TGI (NCI-H460 lung): 15.8 µM | GI50 (NCI-H522 lung): 1.39 µM | TGI (NCI-H522 lung): 3.1 µM | GI50 (NCI/ADR-RES ovarian): 16.2 µM | TGI (NCI/ADR-RES ovarian): > 100 µM | GI50 (OVCAR-3 ovarian): 1.7 µM | TGI (OVCAR-3 ovarian): 3.68 µM | GI50 (OVCAR-4 ovarian): 4.06 µM | TGI (OVCAR-4 ovarian): > 100 µM | GI50 (OVCAR-5 ovarian): 4.13 µM | TGI (OVCAR-5 ovarian): 17.6 µM | GI50 (OVCAR-8 ovarian): 3.94 µM | TGI (OVCAR-8 ovarian): > 100 µM | GI50 (PC-3 prostate): 1.89 µM | TGI (PC-3 prostate): 6.76 µM | GI50 (RPMI-8226 leukemia): 3.81 µM | TGI (RPMI-8226 leukemia): > 100 µM | GI50 (RXF 393 renal): 1.78 µM | TGI (RXF 393 renal): 4.72 µM | GI50 (SF-268 CNS): 4.33 µM | TGI (SF-268 CNS): 19.7 µM | GI50 (SF-295 CNS): 10.3 µM | TGI (SF-295 CNS): 43.6 µM | GI50 (SF-539 CNS): 1.69 µM | TGI (SF-539 CNS): 3.24 µM | GI50 (SK-MEL-2 melanoma): 1.54 µM | TGI (SK-MEL-2 melanoma): 3.44 µM | GI50 (SK-MEL-28 melanoma): 1.22 µM | TGI (SK-MEL-28 melanoma): 2.8 µM | GI50 (SK-MEL-5 melanoma): 1.42 µM | TGI (SK-MEL-5 melanoma): 2.78 µM | GI50 (SK-OV-3 ovarian): 21.3 µM | TGI (SK-OV-3 ovarian): 55 µM | GI50 (SN12C renal): 3.37 µM | TGI (SN12C renal): > 100 µM | GI50 (SNB-19 CNS): 29.7 µM | TGI (SNB-19 CNS): > 100 µM | GI50 (SNB-75 CNS): 2.65 µM | TGI (SNB-75 CNS): 14.4 µM | GI50 (SW-620 colon): 1.91 µM | TGI (SW-620 colon): 4.82 µM | GI50 (T-47D breast): 1.6 µM | TGI (T-47D breast): 4.37 µM | GI50 (TK-10 renal): 1.89 µM | TGI (TK-10 renal): 4.4 µM | GI50 (U251 CNS): 2.63 µM | TGI (U251 CNS): 10.2 µM | GI50 (UACC-257 melanoma): 1.92 µM | TGI (UACC-257 melanoma): 4.47 µM | GI50 (UACC-62 melanoma): 5.56 µM | TGI (UACC-62 melanoma): 45.4 µM | GI50 (UO-31 renal): 1.1 µM | TGI (UO-31 renal): 2.33 µM
